Data: patent US20160046592A1, “PHARMACEUTICAL COMPOSITION FOR THE TREATMENT OF DIABETES” (Ajinomoto Co., Inc., priority 2013, published 2016)
Counter-ions that a name gives are not always drawn.

Target: T1, human GYS1 (glycogen synthase) (Homo sapiens, UniProt P13807)
T1 construct: made in house; host or cells: HEK293T
T1 sequence (P13807 1-737): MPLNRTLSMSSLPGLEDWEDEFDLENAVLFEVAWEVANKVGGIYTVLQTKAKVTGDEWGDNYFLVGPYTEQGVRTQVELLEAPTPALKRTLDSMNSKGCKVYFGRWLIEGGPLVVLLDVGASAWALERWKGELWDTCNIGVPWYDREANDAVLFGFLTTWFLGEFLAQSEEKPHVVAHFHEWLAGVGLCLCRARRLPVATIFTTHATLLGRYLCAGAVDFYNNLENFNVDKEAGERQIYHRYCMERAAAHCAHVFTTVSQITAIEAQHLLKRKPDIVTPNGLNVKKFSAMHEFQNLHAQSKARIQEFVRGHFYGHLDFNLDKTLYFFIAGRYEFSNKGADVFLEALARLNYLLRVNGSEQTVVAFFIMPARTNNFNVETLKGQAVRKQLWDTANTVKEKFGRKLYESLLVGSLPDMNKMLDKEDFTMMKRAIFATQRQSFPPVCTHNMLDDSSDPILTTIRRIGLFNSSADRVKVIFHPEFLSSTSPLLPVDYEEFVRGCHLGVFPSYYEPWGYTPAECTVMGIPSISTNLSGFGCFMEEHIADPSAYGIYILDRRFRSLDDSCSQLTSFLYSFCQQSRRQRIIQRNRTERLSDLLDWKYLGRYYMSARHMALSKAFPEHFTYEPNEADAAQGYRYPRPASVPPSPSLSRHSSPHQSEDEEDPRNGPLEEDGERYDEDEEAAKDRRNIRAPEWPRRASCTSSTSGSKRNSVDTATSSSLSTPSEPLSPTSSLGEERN
Assay: Measurement of glycogen synthase activity
Format: biochemical
Conditions: concentration causing 50% increase in relative activity; 100% = compound of Example 1 of WO/2011/058154 at 10 μM; 10 mM Glucose-6-phosphate; 37° C. for 25 minutes (Examples 1 to 61 and 67 to 82) or 20 minutes (Examples 62 to 66); absorbance at 340 nm
Procedure: A human GYS1 expression plasmid (pCDNA3.1(+)-hGYS1) was constructed by the following method. By using a human skeletal muscle cDNA of Human MTC Panel I (Takara Bio Inc., 636742) as a template, a human GYS1 gene was amplified by a PCR method using cloning primers (Forward Primer: ATGCCTTTAAACCGCAC, Reverse Primer: TTAGTTACGCTCCTCGC). By using the amplified human GYS1 sequence as a template, restriction enzyme sequences were added by a PCR method using sub-cloning primers (Forward Primer: […], and Reverse Primer: […]), and then the human GYS1 gene was introduced between Xho I and Xba I sites of pCDNA3.1(+) (Invitrogen, V790-20).
Glycogen synthase was prepared by the following method. Human kidney-derived HEK293T cells were seeded in a dish (Thermo Fisher Scientific K.K., 168381) by using a 10% FBS-containing DMEM (Nacalai Tesque, Inc., 0845874) medium, and cultured overnight. Then, by using Lipofectamine LTX (Invitrogen, 15338-100), the cells were transfected with the human GYS1 expression vector according to the attached manual. After culturing under conditions of 37° C. and 5% CO2 for 2 days, the resultant was lysed in a lysis buffer (50 mM Tris-HCl (pH 8.0), 10 mM EDTA, 2 mM EGTA, 100 mM NaF, 1 mM PMSF, 1 mM DTT, and 1× Complete (Roche, 1873580)), homogenized, and then centrifuged at 16000×g at 4° C. for 15 minutes. The precipitated fraction re-dissolved by adding the lysis buffer was used as a glycogen synthase for evaluation.
The glycogen synthase activity was measured by the following method. To a polystyrene 96-well plate, solutions each containing 30 mM glycylglycine (pH 7.3), 40 mM KCl, 20 mM MgCl2, 9.2% DMSO containing one of the test compounds at one of various concentrations, and 10 mM Glucose-6-phosphate (Sigma-Aldrich, G7879) were added at 12 μL/well.
Next, a substrate solution containing 30 mM glycylglycine (pH 7.3), 4.3 mg/mL glycogen (Sigma-Aldrich, G8876), 21.6 mM UDP-glucose (Sigma-Aldrich, U4625), 21.6 mM phosphoenolpyruvic acid (Sigma-Aldrich, P0564), and 4.05 mM NADH (Sigma-Aldrich, N8129) was added at 18 μL/well.
Moreover, an enzyme solution containing 50 mM Tris-HCl (pH 8.0), 27 mM DTT (NACALAI TESQUE, INC., 14128-04), 0.2 mg/mL bovine serum albumin, 0.17 mg/mL glycogen synthase, and 1.5 μL pyruvate kinase/lactate dehydrogenase solution (Sigma-Aldrich, P0294) was added at 18 μL/well to prepare reaction solutions. After the reaction solutions were incubated (at 37° C. for 25 minutes for Examples 1 to 61 and 67 to 82 or at 37° C. for 20 minutes for Examples 62 to 66), the absorbance at 340 nm was measured by using Benchmark Plus (Bio-Rad Laboratories, Inc.).
The activity of each test compound was calculated by the following method. The absorbance at 340 nm of the reaction solution containing the compound and DMSO was subtracted from the absorbance at 340 nm of a reaction solution not containing the compound but containing only DMSO to calculate the change (ΔA340) in absorbance. The relative activity (%) of the test compound at each of the various concentrations was calculated, where the ΔA340 of a reaction solution containing the compound of Example 1 of WO/2011/058154 at a final concentration of 10 μM was taken as 100%. EC50 representing the concentration of the compound at which an increase in the relative activity by 50% was caused was calculated using XLfit (idbs).

| SMILES | EC50 [nM] |
| --- | --- |
| NC(=O)C1CC[C@@H](C(=O)O)N1C(=O)c1cccc(COc2ccc(-c3cc(F)c(F)c4ccoc34)cc2)c1 (single isomer, unassigned) [Example 4, (2S,5R) or (2S,5S)-5-Carbamoyl-1-[3-[[4-(4,5-difluorobenzofuran-7-yl)phenoxy]methyl]benzoyl]pyrrolidine-2-carboxylic Acid] | < 3 |
| NC(=O)CN(CC(=O)O)C(=O)c1cccc(COc2ccc(-c3cc(F)c(F)c4ccoc34)cc2)c1 [Example 1, 2-[(2-Amino-2-oxo-ethyl)-[3-[[4-(4,5-difluorobenzofuran-7-yl)phenoxy]methyl]benzoyl]amino]acetic Acid] | 13 |
| O=C(O)[C@@H]1[C@@H](O)CCN1C(=O)c1cccc(COc2ccc(-c3cc(F)c(F)c4ccoc34)cc2)c1 [Example 2, (2S,3S)-1-[3-[[4-(4,5-Difluorobenzofuran-7-yl)phenoxy]methyl]benzoyl]-3-hydroxy-pyrrolidine-2-carboxylic Acid] | 4.3 |
| O=C(O)[C@@H]1[C@H](O)CCN1C(=O)c1cccc(COc2ccc(-c3cc(F)c(F)c4ccoc34)cc2)c1 [Example 3, (2S,3R)-1-[3-[[4-(4,5-Difluorobenzofuran-7-yl)phenoxy]methyl]benzoyl]-3-hydroxy-pyrrolidine-2-carboxylic Acid] | 16 |
| CSc1cc(F)c(F)cc1-c1ccc(OCc2cccc(C(=O)N3CC[C@H](O)[C@H]3C(=O)O)c2)cc1 [Example 5, (2S,3S)-1-[3-[[4-(4,5-Difluoro-2-methylsulfanyl-phenyl)phenoxy]methyl]benzoyl]-3-hydroxy-pyrrolidine-2-carboxylic Acid] | < 10 |
| COCCN(CC(=O)O)C(=O)c1cccc(COc2ccc(-c3cc(F)c(F)cc3SC)cc2)c1 [Example 6, 2-[[3-[[4-(4,5-Difluoro-2-methylsulfanyl-phenyl)phenoxy]methyl]benzoyl]-(2-methoxyethyl)amino]acetic Acid] | 17 |
| CSc1cc(F)c(F)cc1-c1ccc(OCc2cccc(C(=O)N(CCC#N)CC(=O)O)c2)cc1 [Example 7, 2-[2-Cyanoethyl-[3-[[4-(4,5-difluoro-2-methylsulfanyl-phenyl)phenoxy]methyl]benzoyl]amino]acetic Acid] | 11 |
| CS(=O)(=O)CCN(CC(=O)O)C(=O)c1cccc(COc2ccc(-c3cc(F)c(F)c4ccoc34)cc2)c1 [Example 8, 2-[[3-[[4-(4,5-Difluorobenzofuran-7-yl)phenoxy]methyl]benzoyl]-(2-methylsulfonylethyl)amino]acetic Acid] | 15 |
| O=C(O)CN(CC1CCOCC1)C(=O)c1cccc(COc2ccc(-c3cc(F)c(F)c4ccoc34)cc2)c1 [Example 9, 2-[[3-[[4-(4,5-Difluorobenzofuran-7-yl)phenoxy]methyl]benzoyl]-(tetrahydropyran-4-ylmethyl)amino]acetic Acid] | 16 |
| CSc1cc(F)c(F)cc1-c1ccc(OCc2cccc(C(=O)N(CC(N)=O)CC(=O)O)c2)cc1 [Example 10, 2-[(2-Amino-2-oxo-ethyl)-[3-[[4-(4,5-difluoro-2-methylsulfanyl-phenyl)phenoxy]methyl]benzoyl]amino]acetic Acid] | 7.2 |
| CN(C)C(=O)CN(CC(=O)O)C(=O)c1cccc(COc2ccc(-c3cc(F)c(F)c4ccoc34)cc2)c1 [Example 11, 2-[[3-[[4-(4,5-Difluorobenzofuran-7-yl)phenoxy]methyl]benzoyl]-[2-(dimethylamino)-2-oxo-ethyl]amino]acetic Acid] | 10 |
| O=C(O)CN(CC1CCNCC1)C(=O)c1cccc(COc2ccc(-c3cc(F)c(F)c4ccoc34)cc2)c1 [Example 12, 2-[[3-[[4-(4,5-Difluorobenzofuran-7-yl)phenoxy]methyl]benzoyl]-(4-piperidylmethyl)amino]acetic Acid Trifluoroacetate] | 16 |

The remaining lines, values ahead:

| EC50 [nM] | SMILES |
| --- | --- |
| 10 | CSc1cc(F)c(F)cc1-c1ccc(OCc2cccc(C(=O)N3C(C(N)=O)CC[C@H]3C(=O)O)c2)cc1 (single isomer, unassigned) [Example 57, (2S,5R) or (2S,5S)-5-Carbamoyl-1-[3-[[4-(4,5-difluoro-2-methylsulfanyl-phenyl)phenoxy]methyl]benzoyl]pyrrolidine-2-carboxylic Acid] |
| 7.3 | CSc1cc(F)c(F)cc1-c1ccc(OCc2cccc(C(=O)N3C(C(N)=O)CC[C@H]3C(=O)O)c2)cc1 (single isomer, unassigned) [Example 58, (2S,5S) or (2S,5R)-5-Carbamoyl-1-[3-[[4-(4,5-difluoro-2-methylsulfanyl-phenyl)phenoxy]methyl]benzoyl]pyrrolidine-2-carboxylic Acid] |
| 22 | NC(=O)C1CC[C@@H](C(=O)O)N1C(=O)c1cccc(COc2ccc(-c3cc(F)c(F)c4ccoc34)cc2)c1 (single isomer, unassigned) [Example 76, (2S,5S) or (2S,5R)-5-Carbamoyl-1-[3-[[4-(4,5-difluorobenzofuran-7-yl)phenoxy]methyl]benzoyl]pyrrolidine-2-carboxylic Acid] |
| 21 | COC1CCN(C(=O)c2cccc(COc3ccc(-c4cc(F)c(F)cc4SC)cc3)c2)C1C(=O)O (stereo in doubt) [Example 33, (2S,3S)-1-[3-[[4-(4,5-Difluoro-2-methylsulfanyl-phenyl)phenoxy]methyl]benzoyl]-3-methoxy-pyrrolidine-2-carboxylic Acid] |
| 15 | CN(C)CCN(CC(=O)O)C(=O)c1cccc(COc2ccc(-c3cc(F)c(F)c4ccoc34)cc2)c1 [Example 13, 2-[[3-[[4-(4,5-Difluorobenzofuran-7-yl)phenoxy]methyl]benzoyl]-(2-dimethylaminoethyl)amino]acetic Acid Trifluoroacetate] |
| 15 | Cc1coc2c(-c3ccc(OCc4cccc(C(=O)N(CCS(C)(=O)=O)CC(=O)O)c4)cc3)cc(F)c(F)c12 [Example 14, 2-[[3-[[4-(4,5-Difluoro-3-methyl-benzofuran-7-yl)phenoxy]methyl]benzoyl]-(2-methylsulfonylethyl)amino]acetic Acid] |
| 13 | CNC(=O)CN(CC(=O)O)C(=O)c1cccc(COc2ccc(-c3cc(F)c(F)c4ccoc34)cc2)c1 [Example 15, 2-[[3-[[4-(4,5-Difluorobenzofuran-7-yl)phenoxy]methyl]benzoyl]-[2-(methylamino)-2-oxo-ethyl]amino]acetic Acid] |
